From patent publication US12729377B2, “RNAi agents and compositions for inhibiting expression of angiopoietin-like 3 (ANGPTL3), and methods of use” (Arrowhead Pharmaceuticals, Inc., priority 2017, dated 2026)

Key:
[1] = test system: ANGPTL3 gene; experiment: Example 9: serum total cholesterol in cynomolgus monkeys; type: in vivo, cynomolgus macaque (Macaca fascicularis); details: 2.0 mg/kg single SC injection day 1, cynos, n=3
Experimental: (§1) Additional ANGPTL3 RNAi agents were evaluated in cynomolgus monkeys. On day 1, cynomolgus macaque (Macaca fascicularis) primates (also referred to herein as “cynos”) were administered a single subcutaneous injection of 0.3 mL/kg (approximately 2-3 mL volume, depending on animal mass) containing 2.0 mg/kg of an ANGPTL3 RNAi agent, which included either AD05488, AD05743, AD05775, or AD05841, each formulated in saline. […] ANGPTL3 RNAi agents AD05488, AD05743, and AD05775 included nucleotide sequences designed to target position 304 of the ANGPTL3 gene. ANGPTL3 RNAi agent AD05841 included nucleotide sequences designed to target position 1035 of the ANGPTL3 gene.
(§2) Three (3) cynos in each group were tested (n=3). Blood samples were drawn and serum samples were analyzed on days −14 (predose), −7 (predose), 1 (pre-dose), 8, 15, 22, 29, and 35. Cynos were fasted overnight prior to each collection. ANGPTL3 protein levels in serum were measured by ELISA assay (R&D Systems), according to the manufacturer's recommendations. Triglycerides, total cholesterol, high-density lipoprotein (HDL), and low-density lipoprotein (LDL) in serum were measured on a Cobas® Integra 400 (Roche Diagnostics), according to the manufacturer's recommendations.
(§3) The ANGPTL3 protein levels, triglyceride levels, total cholesterol levels, HDL levels, and LDL levels for each animal were normalized. For normalization, the level of ANGPTL3 protein, triglyceride, HDL, and total cholesterol, respectively, for each animal at a time point, was divided by the average pre-treatment level of expression in that animal (in this case at days −14, −7, and 1) to determine the ratio of expression “normalized to pre-treatment.”

[2] = test system: ANGPTL3 gene; experiment: Example 7: serum triglycerides in mice; type: in vivo, C57bl/6 mice; design: key: ratio: (level/pre-treatment day -1 level) ÷ mean of D5W control group
Experimental: (§4) To further assess the in vivo activity of additional ANGPTL3 RNAi agents that are designed to target position 304 on the ANGPTL3 gene, six- to eight-week-old female C57bl/6 mice were used. Pre-dose serum samples were taken at day −1 after a four hour fast. At day 1, each mouse was given a single subcutaneous administration of 200 μl containing 0.5 mg/kg (mpk) of an ANGPTL3 RNAi agent in D5W (dextrose in 5% water), or control (D5W) with no RNAi agent, according to the dosing groups recited in Table 31.
(§5) Each of the RNAi agents included a modified sequence and an N-acetyl-galactosamine-containing targeting ligand conjugated to the 5′ terminal end of the sense strand. (See Tables 3, 4, and 5 for modified sequences and targeting ligand structures). The injections were performed between the skin and muscle (i.e. subcutaneous injections) into the loose skin over the neck and shoulder area. Three (3) mice in each group were tested (n=3). Serum was collected on days 8, 15, 22, and 29. Mice were fasted for four hours prior to each collection. ANGPTL3 protein levels in serum were measured by ELISA assay (R&D Systems), according to the manufacturer's recommendations. Triglycerides, total cholesterol, high-density lipoprotein (HDL), and low-density lipoprotein (LDL) in serum were measured on a Cobas® Integra 400 (Roche Diagnostics), according to the manufacturer's recommendations.
(§6) The ANGPTL3 protein levels, triglyceride levels, total cholesterol levels, HDL levels, and LDL levels for each animal were normalized. For normalization, the level of ANGPTL3 protein, triglyceride, HDL, and total cholesterol, respectively, for each animal at a time point, was divided by the pre-treatment level of expression in that animal (in this case at day −1) to determine the ratio of expression “normalized to pre-treatment.” Expression at a specific time point was then normalized to the D5W control group by dividing the “normalized to pre-treatment” ratio for an individual animal by the mean “normalized to pretreatment” ratio of all mice in the D5W control group.

[3] = test system: ANGPTL3 gene; experiment: Example 7: serum LDL in mice; type: in vivo; design: key: ratio: (level/pre-treatment day -1 level) ÷ mean of D5W control group; details: 0.5 mg/kg single SC injection day 1, female C57bl/6 mice, n=3, ratio to D5W control
Experimental: as §4, §5, §6

[4] = test system: ANGPTL3 protein; experiment: Example 7: serum ANGPTL3 protein by ELISA in mice; type: in vivo, C57bl/6 mice; design: key: ratio: (level/pre-treatment day -1 level) ÷ mean of D5W control group
Experimental: as §4, §5, §6

[5] = test system: ANGPTL3 gene; experiment: Example 7: serum total cholesterol in mice; type: in vivo, C57bl/6 mice; design: key: ratio: (level/pre-treatment day -1 level) ÷ mean of D5W control group
Experimental: as §4, §5, §6

[6] = test system: ANGPTL3 gene; experiment: Example 7: serum HDL in mice; type: in vivo; design: key: ratio: (level/pre-treatment day -1 level) ÷ mean of D5W control group; details: 0.5 mg/kg single SC injection day 1, female C57bl/6 mice, n=3, ratio to D5W control
Experimental: as §4, §5, §6

[7] = test system: ANGPTL3 protein; experiment: Example 9: serum ANGPTL3 protein by ELISA in cynomolgus monkeys; type: in vivo, cynomolgus macaque (Macaca fascicularis); details: for Average ANGPTL3 Protein Normalized to Pre-Treatment: 2.0 mg/kg single SC injection day 1, cynos, n=3
Experimental: as §1, §2, §3

[8] = test system: ANGPTL3 gene; experiment: Example 9: serum HDL in cynomolgus monkeys; type: in vivo, cynomolgus macaque (Macaca fascicularis); details: 2.0 mg/kg single SC injection day 1, cynos, n=3
Experimental: as §1, §2, §3

[9] = test system: ANGPTL3 gene; experiment: Example 9: serum triglycerides in cynomolgus monkeys; type: in vivo, cynomolgus macaque (Macaca fascicularis); details: 2.0 mg/kg single SC injection day 1, cynos, n=3
Experimental: as §1, §2, §3

[10] = test system: ANGPTL3 gene; experiment: Example 9: serum LDL in cynomolgus monkeys; type: in vivo, cynomolgus macaque (Macaca fascicularis); details: 2.0 mg/kg single SC injection day 1, cynos, n=3
Experimental: as §1, §2, §3

[11] = Day 8, 0.5 mg/kg single SC injection on day 1, n=3
[12] = Day 15, 0.5 mg/kg single SC injection on day 1, n=3
[13] = Day 22, 0.5 mg/kg single SC injection on day 1, n=3
[14] = Day 29, 0.5 mg/kg single SC injection on day 1, n=3

AD05775: RNAi agent duplex: antisense AM07235-AS, sense AM07608-SS (antisense UACUGAUCAAAUAUGUUGAGC; sense GCUCAACAUNUUUGAUCAGUA; (NAG37)s GalNAc ligand; RNAi agent antisense strand modified sequence; RNAi agent sense strand modified sequence; modified_base 10 n = 2′-O-methyl-2-aminoadenosine-3′-phosphate)
Average Total Cholesterol Normalized to Pre-Treatment ([1]; Day 8): 0.965 | Average Total Cholesterol Normalized to Pre-Treatment ([1]; Day 15): 0.811 | Average Total Cholesterol Normalized to Pre-Treatment ([1]; Day 22): 0.811 | Average Total Cholesterol Normalized to Pre-Treatment ([1]; Day 29): 0.813 | Average Total Cholesterol Normalized to Pre-Treatment ([1]; Day 35): 0.770 | Avg TG, normalized to pre-treatment and control [2, 11]: 0.837 | Avg TG, normalized to pre-treatment and control [2, 12]: 0.610 | Avg TG, normalized to pre-treatment and control [2, 13]: 0.819 | Avg TG, normalized to pre-treatment and control [2, 14]: 0.885 | Avg LDL, normalized to pre-treatment and control ([3]; Day 8): 0.975 | Avg LDL, normalized to pre-treatment and control ([3]; Day 15): 0.918 | Avg LDL, normalized to pre-treatment and control ([3]; Day 22): 1.095 | Avg LDL, normalized to pre-treatment and control ([3]; Day 29): 1.534 | Avg ANGPTL3, normalized to pre-treatment and control [4, 11]: 0.247 | Avg ANGPTL3, normalized to pre-treatment and control [4, 12]: 0.232 | Avg ANGPTL3, normalized to pre-treatment and control [4, 13]: 0.218 | Avg ANGPTL3, normalized to pre-treatment and control [4, 14]: 0.300 | Avg Total Chol, normalized to pre-treatment and control [5, 11]: 0.794 | Avg Total Chol, normalized to pre-treatment and control [5, 12]: 0.777 | Avg Total Chol, normalized to pre-treatment and control [5, 13]: 0.812 | Avg Total Chol, normalized to pre-treatment and control [5, 14]: 1.108 | Avg HDL, normalized to pre-treatment and control ([6]; Day 8): 0.754 | Avg HDL, normalized to pre-treatment and control ([6]; Day 15): 0.757 | Avg HDL, normalized to pre-treatment and control ([6]; Day 22): 0.736 | Avg HDL, normalized to pre-treatment and control ([6]; Day 29): 1.069 | Average ANGPTL3 Protein Normalized to Pre-Treatment ([7]; Day 8): 0.463 | Average ANGPTL3 Protein Normalized to Pre-Treatment ([7]; Day 15): 0.352 | Average ANGPTL3 Protein Normalized to Pre-Treatment ([7]; Day 22): 0.330 | Average ANGPTL3 Protein Normalized to Pre-Treatment ([7]; Day 29): 0.365 | Average ANGPTL3 Protein Normalized to Pre-Treatment ([7]; Day 35): 0.379 | reduction in ANGPTL3 protein compared to pre-treatment ([7]; each of the measured time points, single 2.0 mg/kg subcutaneous, cynomolgus monkeys): reduction | Average HDL Normalized to Pre-Treatment ([8]; Day 8): 0.904 | Average HDL Normalized to Pre-Treatment ([8]; Day 15): 0.871 | Average HDL Normalized to Pre-Treatment ([8]; Day 22): 0.737 | Average HDL Normalized to Pre-Treatment ([8]; Day 29): 0.781 | Average HDL Normalized to Pre-Treatment ([8]; Day 35): 0.723 | Average Triglycerides Normalized to Pre-Treatment ([9]; Day 8): 0.466 | Average Triglycerides Normalized to Pre-Treatment ([9]; Day 15): 0.427 | Average Triglycerides Normalized to Pre-Treatment ([9]; Day 22): 0.552 | Average Triglycerides Normalized to Pre-Treatment ([9]; Day 29): 0.391 | Average Triglycerides Normalized to Pre-Treatment ([9]; Day 35): 0.431 | Average LDL Normalized to Pre-Treatment ([10]; Day 8): 1.134 | Average LDL Normalized to Pre-Treatment ([10]; Day 15): 0.909 | Average LDL Normalized to Pre-Treatment ([10]; Day 22): 1.089 | Average LDL Normalized to Pre-Treatment ([10]; Day 29): 1.034 | Average LDL Normalized to Pre-Treatment ([10]; Day 35): 1.008
